Tests used:
[1] = tested on: human LoVo colon tumour xenografts; test: Human LoVo colon tumour xenografts in nude mice; details: LoVo xenograft, p.o. daily days 0-14, ZD6474 6 mg/kg/day, ZD1839 50 mg/kg/day, or combination, versus control
Experimental: 10^7 LoVo tumour cells in 0.1 ml of serum free Dulbecco's Modified Eagle's Medium (DMEM) were injected subcutaneously (s.c.) into the flank of each athymic (nu/nu genotype) mouse. Tumor volumes were assessed by bilateral Vernier caliper measurement and, taking length to be the longest diameter across the tumor and width the corresponding perpendicular, calculated using the formula (length×width)×the square root of (length×width)×(π/6). […] A one-tailed two-sample t-test was used to evaluate the significance of tumour growth inhibition.

[2] = tested on: human A431 vulval carcinoma tumour xenografts; test: Human A431 vulval carcinoma tumour xenografts in nude mice; details: A431 xenograft; for Number of tumours regressing after 31 days of treatment (treatment from day 28 to day 59): tumour volume at day 59 smaller than pre-treatment value on day 28, regressing/total
Experimental: 5×10^6 A431 tumour cells in 0.1 ml of serum free Dulbecco's Modified Eagle's Medium (DMEM) were injected subcutaneously (s.c.) into the flank of each athymic (nu/nu genotype) mouse. Eleven days after inoculation tumours were excised and dissected to generate cubic tumour fragments of 0.5-1 mm^3, which were implanted into further nude mice for a therapy experiment. Tumour volumes were assessed by bilateral Vernier caliper measurement and, taking length to be the longest diameter across the tumour and width the corresponding perpendicular, calculated using the formula (length×width)×the square root of (length×width)×(π/6). […] In addition, the number of tumour regressions following 31 days of treatment was ascertained (tumour regression being evident if the tumour volume at day 59 was smaller than the pre-treatment value on day 28).

| SMILES | % Inhibition of Tumour Growth at Day 14 [1] | Mean % Inhibition of tumour growth following 21 days of treatment (treatment from day 28 to day 49) ([2]; nude mice, p.o., ZD6474 50 mg/kg/day, ZD1839 50 mg/kg/day, or combination, assessed day 49 versus control) | % tumour regression following 21 days of treatment (day 28 to day 49) ([2]; restatement of inhibition above 100% as regression, day 49) | Number of tumours regressing after 31 days of treatment (treatment from day 28 to day 59) [2] |
| --- | --- | --- | --- | --- |
| COc1cc2c(Nc3ccc(Br)cc3F)ncnc2cc1OCC1CCN(C)CC1 [ZD6474, 4-(4-bromo-2-fluoroanilino)-6-methoxy-7-(1-methylpiperidin-4-ylmethoxy)quinazoline] | 38% | 116% (P < 0.001) | (i.e. 16% tumour regression) | 6/9 |
| COc1cc2ncnc(Nc3ccc(F)c(Cl)c3)c2cc1OCCCN1CCOCC1 [ZD1839, N-(3-chloro-4-fluorophenyl)-7-methoxy-6-(3-morpholinopropoxy)quinazolin-4-amine, reference compound] |  |  |  | 3/9 |

— patent US20100130493A1, “COMBINATION OF VEGF RECEPTOR TYROSINE KINASE INHIBITORS FOR TREATMENT OF CANCER” (priority 2002, published 2010)
